PubChem BioAssay AID2060896 (Molecular Pharmacology Branch, DTP, NCI, 2025)

System: 941728-121-R-J1-PDC complex spheroid viability
Test: Anticancer human tumor 941728-121-R-J1-PDC patient-derived lung adenocarcinoma cell line growth inhibition [RAS]
Conditions: for IC50: curve of first compound; for viability, T/C: stronger effect = lower value
In short: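 Multi-cell-type spheroids: tumor cells plus HUVEC endothelial cells and mesenchymal stem cells. RAS-pathway inhibitors were combined with targeted agents, each dosed in half-log steps down from clinical Cmax, or from 10 microM when Cmax was unknown.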
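Note: spheroids exposed to compounds for 7 days before readout.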
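Throughout, for viability, T/C: 100% = DMSO vehicle control viability.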

CCc1c2c(nc3ccc(O)cc13)-c1cc3c(c(=O)n1C2)COC(=O)[C@]3(O)CC + CCn1c(-c2cc(N3CCN(C)CC3)cnc2C(C)OC)c2c3cc(ccc31)-c1csc(n1)CC(NC(=O)C1CC1C)C(=O)N1CCCC(N1)C(=O)OCC(C)(C)C2
IC50 (second compound 0.000949 µM): < 0.949 nM
IC50 (second compound 0.003 µM): < 0.949 nM
IC50 (second compound 0.00949 µM): < 0.949 nM
IC50 (second compound 0.03 µM): < 0.949 nM
IC50 (second compound 0.0949 µM): < 0.949 nM
IC50 (second compound 0.3 µM): < 0.949 nM
viability, T/C (second compound 0.000949 µM, first compound 0.000949 µM): 24.6%
viability, T/C (second compound 0.000949 µM, first compound 0.003 µM): 24.4%
viability, T/C (second compound 0.000949 µM, first compound 0.00949 µM): 19.9%
viability, T/C (second compound 0.000949 µM, first compound 0.03 µM): 20.5%
viability, T/C (second compound 0.000949 µM, first compound 0.0949 µM): 18.1%
viability, T/C (second compound 0.000949 µM, first compound 0.3 µM): 9.95%
viability, T/C (second compound 0.003 µM, first compound 0.000949 µM): 25.8%
viability, T/C (second compound 0.003 µM, first compound 0.003 µM): 16.7%
viability, T/C (second compound 0.003 µM, first compound 0.00949 µM): 12.8%
viability, T/C (second compound 0.003 µM, first compound 0.03 µM): 13.4%
viability, T/C (second compound 0.003 µM, first compound 0.0949 µM): 10.3%
viability, T/C (second compound 0.003 µM, first compound 0.3 µM): 5.76%
viability, T/C (second compound 0.00949 µM, first compound 0.000949 µM): 17.3%
viability, T/C (second compound 0.00949 µM, first compound 0.003 µM): 10.6%
viability, T/C (second compound 0.00949 µM, first compound 0.00949 µM): 13.3%
viability, T/C (second compound 0.00949 µM, first compound 0.03 µM): 10.5%
viability, T/C (second compound 0.00949 µM, first compound 0.0949 µM): 7.7%
viability, T/C (second compound 0.00949 µM, first compound 0.3 µM): 4.19%
viability, T/C (second compound 0.03 µM, first compound 0.000949 µM): 13.7%
viability, T/C (second compound 0.03 µM, first compound 0.003 µM): 14.1%
viability, T/C (second compound 0.03 µM, first compound 0.00949 µM): 9.58%
viability, T/C (second compound 0.03 µM, first compound 0.03 µM): 8.62%
viability, T/C (second compound 0.03 µM, first compound 0.0949 µM): 5.46%
viability, T/C (second compound 0.03 µM, first compound 0.3 µM): 4.56%
viability, T/C (second compound 0.0949 µM, first compound 0.000949 µM): 12.9%
viability, T/C (second compound 0.0949 µM, first compound 0.003 µM): 11.2%
viability, T/C (second compound 0.0949 µM, first compound 0.00949 µM): 10.6%
viability, T/C (second compound 0.0949 µM, first compound 0.03 µM): 8.43%
viability, T/C (second compound 0.0949 µM, first compound 0.0949 µM): 5.36%
viability, T/C (second compound 0.0949 µM, first compound 0.3 µM): 4.56%
viability, T/C (second compound 0.3 µM, first compound 0.000949 µM): 10.8%
viability, T/C (second compound 0.3 µM, first compound 0.003 µM): 10.7%
viability, T/C (second compound 0.3 µM, first compound 0.00949 µM): 9.64%
viability, T/C (second compound 0.3 µM, first compound 0.03 µM): 10.6%
viability, T/C (second compound 0.3 µM, first compound 0.0949 µM): 5.65%
viability, T/C (second compound 0.3 µM, first compound 0.3 µM): 3.94%

C=CC(=O)Nc1cc(Nc2nccc(-c3cn(C)c4ccccc34)n2)c(OC)cc1N(C)CCN(C)C + CCn1c(-c2cccnc2C(C)OC)c2c3cc(ccc31)N1CCOC(CC(NC(=O)C(C(C)C)N(C)C(=O)C3(F)CCN(C(=O)C#CC(C)(C)N(C)C)CC3)C(=O)N3CCCC(N3)C(=O)OCC(C)(C)C2)C1
IC50 (second compound 0.000949 µM): < 3.16 nM
IC50 (second compound 0.003 µM): 382 nM
IC50 (second compound 0.00949 µM): < 3.16 nM
IC50 (second compound 0.03 µM): < 3.16 nM
IC50 (second compound 0.0949 µM): < 3.16 nM
IC50 (second compound 0.3 µM): < 3.16 nM
viability, T/C (second compound 0.000949 µM, first compound 0.00316 µM): 24.4%
viability, T/C (second compound 0.000949 µM, first compound 0.01 µM): 22.9%
viability, T/C (second compound 0.000949 µM, first compound 0.0316 µM): 16.2%
viability, T/C (second compound 0.000949 µM, first compound 0.1 µM): 20.1%
viability, T/C (second compound 0.000949 µM, first compound 0.316 µM): 19.2%
viability, T/C (second compound 0.000949 µM, first compound 1 µM): 12.8%
viability, T/C (second compound 0.003 µM, first compound 0.00316 µM): 89.7%
viability, T/C (second compound 0.003 µM, first compound 0.01 µM): 91.4%
viability, T/C (second compound 0.003 µM, first compound 0.0316 µM): 69.4%
viability, T/C (second compound 0.003 µM, first compound 0.1 µM): 69.9%
viability, T/C (second compound 0.003 µM, first compound 0.316 µM): 53.1%
viability, T/C (second compound 0.003 µM, first compound 1 µM): 35.4%
viability, T/C (second compound 0.00949 µM, first compound 0.00316 µM): 22.7%
viability, T/C (second compound 0.00949 µM, first compound 0.01 µM): 18.3%
viability, T/C (second compound 0.00949 µM, first compound 0.0316 µM): 20.5%
viability, T/C (second compound 0.00949 µM, first compound 0.1 µM): 19.2%
viability, T/C (second compound 0.00949 µM, first compound 0.316 µM): 16.1%
viability, T/C (second compound 0.00949 µM, first compound 1 µM): 12.8%
viability, T/C (second compound 0.03 µM, first compound 0.00316 µM): 25.8%
viability, T/C (second compound 0.03 µM, first compound 0.01 µM): 20.8%
viability, T/C (second compound 0.03 µM, first compound 0.0316 µM): 16.8%
viability, T/C (second compound 0.03 µM, first compound 0.1 µM): 16.9%
viability, T/C (second compound 0.03 µM, first compound 0.316 µM): 14.2%
viability, T/C (second compound 0.03 µM, first compound 1 µM): 15.5%
viability, T/C (second compound 0.0949 µM, first compound 0.00316 µM): 22%
viability, T/C (second compound 0.0949 µM, first compound 0.01 µM): 22.4%
viability, T/C (second compound 0.0949 µM, first compound 0.0316 µM): 20.7%
viability, T/C (second compound 0.0949 µM, first compound 0.1 µM): 16.6%
viability, T/C (second compound 0.0949 µM, first compound 0.316 µM): 15.9%
viability, T/C (second compound 0.0949 µM, first compound 1 µM): 17.2%
viability, T/C (second compound 0.3 µM, first compound 0.00316 µM): 22.5%
viability, T/C (second compound 0.3 µM, first compound 0.01 µM): 21.6%
viability, T/C (second compound 0.3 µM, first compound 0.0316 µM): 21.3%
viability, T/C (second compound 0.3 µM, first compound 0.1 µM): 20.1%
viability, T/C (second compound 0.3 µM, first compound 0.316 µM): 21.7%
viability, T/C (second compound 0.3 µM, first compound 1 µM): 21.4%
